Data taken from ChEMBL document CHEMBL6071135, “New resorcylic acid derivatives of Lysimachia tengyuehensis against MRSA and VRE by interfering with bacterial metabolic imbalance” (Eur J Med Chem, 2024).
Values after ≈ are worked out from the molar mass of the structure shown. Active and inactive are the calls of the source. The rule behind the calls is not given here.

Legend:
Staphylococcus aureus [1] = assay: Bactericidal activity against methicillin-resistant Staphylococcus aureus measured after 24 hrs by CLSI based broth microdilution method; format: functional
Staphylococcus aureus [2] = assay: Induction of morphological changes in biofilm of methicillin-resistant Staphylococcus aureus assessed as appearance of broken biofilm at 1 to 4 times MIC incubated for 24 hrs by DAPI staining based fluorescence microscopy analysis; format: functional, organism-based
Staphylococcus aureus [3] = assay: Antibacterial activity against methicillin resistant Staphylococcus aureus infected in female Kunming mouse model of skin infection assessed as reduction in inflammatory cell infiltration at 4 mg/kg administered daily pre-infected for 4 hrs followed by compound administration for 7 days; format: functional, organism-based; details: time 7.0 day
Staphylococcus aureus [4] = assay: Antibacterial activity against methicillin resistant Staphylococcus aureus infected in female Kunming mouse model of skin infection assessed as reduction in bacterial load of wound at 4 mg/kg administered daily pre-infected for 4 hrs followed by compound administration for 7 days; format: functional, organism-based; details: time 7.0 day
Staphylococcus aureus [5] = assay: Antimicrobial activity against methicillin-resistant Staphylococcus aureus assessed as reduction in bacterial growth in presence of phosphatidylglycerol by checkerboard broth dilution method; format: functional, organism-based
Staphylococcus aureus [6] = assay: Antibacterial activity against methicillin-resistant Staphylococcus aureus at sub-MIC concentration measured after 24 hrs by CLSI based broth microdilution method; format: functional, organism-based
[7] = Toxicity in Kunming mouse assessed as morphological abnormalities at 4 mg/kg administered daily and measured after 7 days; format: organism-based; details: in vivo, 168 h, time 7 day
Staphylococcus aureus [8] = assay: Antibacterial activity against methicillin resistant Staphylococcus aureus infected in female Kunming mouse model of skin infection assessed as increase in neovascularization at 4 mg/kg administered daily pre-infected for 4 hrs followed by compound administration for 7 days; format: functional, organism-based; details: time 7.0 day
Staphylococcus aureus [9] = assay: Induction of morphological changes in methicillin-resistant Staphylococcus aureus assessed as appearance of died bacterial surface at 4 times MIC measured for 5 hrs by field emission scanning electron microscopy based analysis; format: functional, organism-based
Staphylococcus aureus [10] = assay: Antibacterial activity against methicillin resistant Staphylococcus aureus infected in female Kunming mouse model of skin infection assessed as suppression of purulent secretion at 4 mg/kg administered daily pre-infected for 4 hrs followed by compound administration for 7 days; format: functional, organism-based; details: time 7.0 day
Staphylococcus aureus [11] = assay: Antibacterial activity against methicillin resistant Staphylococcus aureus infected in female Kunming mouse model of skin infection assessed as reduction in wound size at 4 mg/kg administered daily pre-infected for 4 hrs followed by compound administration for 7 days; format: functional, organism-based; details: time 7.0 day
Staphylococcus aureus [12] = assay: Antimicrobial activity against methicillin-resistant Staphylococcus aureus assessed as increase in cell membrane fluidity at upto 4 times MIC incubated for 35 mins by Laurdan-GP dye based spectramax gemini XPS microplate reader analysis; format: functional, organism-based
Enterococcus faecalis [13] = assay: Antibacterial activity against vancomycin-resistant Enterococcus faecalis ATCC51299 infected in female Kunming mouse model of abdominal infection assessed as decrease in inflammatory cell infiltration at 4 mg/kg administered daily pre-infected for 12 hrs followed by compound administration for 3 days; format: functional, organism-based; details: time 3.0 day
Enterococcus faecalis [14] = assay: (§1) Antibacterial activity against vancomycin-resistant Enterococcus faecalis ATCC51299 infected in female Kunming mouse model of abdominal infection assessed as decrease in bacterial load in liver at 4 mg/kg administered daily pre-infected for 12 hrs followed by compound administration for 3 days; format: functional, organism-based; details: time 3.0 day
Enterococcus faecalis [15] = assay: Antibacterial activity against vancomycin-resistant Enterococcus faecalis ATCC51299 infected in female Kunming mouse model of abdominal infection assessed as decrease in granulocytes at 4 mg/kg administered daily pre-infected for 12 hrs followed by compound administration for 3 days; format: functional, organism-based; details: time 3.0 day
Enterococcus faecalis [16] = assay: Antibacterial activity against vancomycin-resistant Enterococcus faecalis ATCC51299 infected in female Kunming mouse model of abdominal infection assessed as decrease in bacterial load in spleen at 4 mg/kg administered daily pre-infected for 12 hrs followed by compound administration for 3 days; format: functional, organism-based; details: time 3.0 day
Staphylococcus aureus [17] = assay: Antibiofilm activity in methicillin-resistant Staphylococcus aureus assessed as increase in biofilm destruction at 1 times MIC incubated for 24 hrs by crystal violet staining based analysis relative to control; format: functional
Enterococcus faecalis [18] = assay: Antibiofilm activity in vancomycin-resistant Enterococcus faecalis ATCC51299 assessed as increase in biofilm destruction at 1 times MIC incubated for 24 hrs by crystal violet staining based analysis relative to control; format: functional
Enterococcus faecalis [19] = assay: Antibacterial activity against vancomycin-resistant Enterococcus faecalis ATCC51299 infected in female Kunming mouse model of abdominal infection assessed as watery degeneration of hepatocytes at 4 mg/kg administered daily pre-infected for 12 hrs followed by compound administration for 3 days; format: functional, organism-based; details: time 3.0 day
Enterococcus faecalis [20] = assay: as §1, with “peritoneal effusion” for “liver”; format: functional, organism-based; details: time 3.0 day
Enterococcus faecalis [21] = assay: Antibacterial activity against vancomycin-resistant Enterococcus faecalis ATCC51299 infected in female Kunming mouse model of abdominal infection assessed as decrease in bacterial load in kidney at 4 mg/kg administered daily pre-infected for 12 hrs followed by compound administration for 3 days; format: functional, organism-based; details: time 3.0 day

In the case of `C=CCCCCCCCCCCCc1cc(O)cc(O)c1C(=O)O`, the MBC (Staphylococcus aureus [1]) is reported as 4 µg/mL (≈ 12 µM), the Activity (Staphylococcus aureus [2]) is reported as “Active” and the Activity (Staphylococcus aureus [3]) is reported as “Active”. The Activity (Staphylococcus aureus [4]) was “Active”, the Activity (Staphylococcus aureus [5]) was “inactive” and the Activity (Staphylococcus aureus [6]) was “Active”. The Activity [7] was “Non-Toxic”, the Activity (Staphylococcus aureus [8]) was “Active” and the Activity (Staphylococcus aureus [9]) was “Active”. For the same compound, the Activity (Staphylococcus aureus [10]) was “Active”, the Activity (Staphylococcus aureus [11]) was “Active” and the Activity (Staphylococcus aureus [12]) was “Active”.
In the case of `C=CCCCCCCCCCCCc1cc(O)cc(O)c1`, the MBC (Staphylococcus aureus [1]) is reported as 4 µg/mL (≈ 13.8 µM), the Activity (Enterococcus faecalis [13]) is reported as “Active” and the Activity (Staphylococcus aureus [2]) is reported as “Active”. The Activity (Staphylococcus aureus [5]) was “inactive”, the Activity (Staphylococcus aureus [6]) was “Active” and the Activity (Enterococcus faecalis [14]) was “Active”. The Activity (Enterococcus faecalis [15]) was “Active”, the Activity (Enterococcus faecalis [16]) was “Active” and the Activity (Staphylococcus aureus [17]) was >50%. For the same compound, the Activity (Staphylococcus aureus [9]) was “Active”, the Activity (Enterococcus faecalis [18]) was >50% and the Activity (Enterococcus faecalis [19]) was “Active”. The Activity (Enterococcus faecalis [20]) was “Active”, the Activity (Enterococcus faecalis [21]) was “Active” and the Activity (Staphylococcus aureus [12]) was “Active”.
